Reference: patent US20240269139A1, “COMPOUNDS FOR TARGETED PROTEIN DEGRADATION OF KINASES” (DANA-FARBER CANCER INSTITUTE, INC., priority 2020, published 2024)
Read-outs that look alike come from different tables or passages of the source.

Key:
Assay type in all cases: cell-based
[1] = molecular target: T1, protein kinases (human kinome) (Homo sapiens, UniProt P78356); settings: PIP4K2B (P78356)
T1 sequence (P78356 1-416): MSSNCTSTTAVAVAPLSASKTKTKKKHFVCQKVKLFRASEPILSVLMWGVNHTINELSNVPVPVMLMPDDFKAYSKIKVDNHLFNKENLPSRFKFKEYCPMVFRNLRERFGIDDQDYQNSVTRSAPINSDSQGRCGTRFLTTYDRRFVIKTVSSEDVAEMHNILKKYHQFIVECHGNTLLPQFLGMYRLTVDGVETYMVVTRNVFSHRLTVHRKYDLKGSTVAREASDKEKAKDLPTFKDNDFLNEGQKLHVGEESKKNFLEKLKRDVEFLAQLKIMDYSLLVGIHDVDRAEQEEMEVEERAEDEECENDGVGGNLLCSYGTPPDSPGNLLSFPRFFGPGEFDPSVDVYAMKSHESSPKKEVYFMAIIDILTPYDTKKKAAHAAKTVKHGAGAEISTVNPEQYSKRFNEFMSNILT

[2] = molecular target: protein kinases (human kinome) (Homo sapiens, UniProt Q96S53); settings: experiment wp147, 4 uM
[3] = molecular target: protein kinases (human kinome) (Homo sapiens, UniProt Q99640); settings: experiment wp131
Chain of protein kinases (human kinome) (Homo sapiens, UniProt Q99640) (Q99640 whole entry): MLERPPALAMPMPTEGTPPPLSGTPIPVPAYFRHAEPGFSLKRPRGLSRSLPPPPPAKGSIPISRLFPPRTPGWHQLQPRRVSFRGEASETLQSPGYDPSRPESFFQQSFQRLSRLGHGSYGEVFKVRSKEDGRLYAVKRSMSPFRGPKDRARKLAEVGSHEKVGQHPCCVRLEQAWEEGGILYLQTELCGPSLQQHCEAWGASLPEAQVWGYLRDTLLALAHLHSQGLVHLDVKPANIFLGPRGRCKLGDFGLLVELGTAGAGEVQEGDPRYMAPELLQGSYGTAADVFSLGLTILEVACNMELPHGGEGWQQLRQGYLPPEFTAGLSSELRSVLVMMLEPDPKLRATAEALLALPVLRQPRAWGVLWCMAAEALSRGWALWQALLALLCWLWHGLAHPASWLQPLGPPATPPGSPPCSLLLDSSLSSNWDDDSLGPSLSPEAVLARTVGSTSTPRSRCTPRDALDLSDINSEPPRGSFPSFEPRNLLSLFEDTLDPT

[4] = molecular target: protein kinases (human kinome) (Homo sapiens, UniProt P54760); settings: experiment wp172
Chain of protein kinases (human kinome) (Homo sapiens, UniProt P54760) (P54760 16-987): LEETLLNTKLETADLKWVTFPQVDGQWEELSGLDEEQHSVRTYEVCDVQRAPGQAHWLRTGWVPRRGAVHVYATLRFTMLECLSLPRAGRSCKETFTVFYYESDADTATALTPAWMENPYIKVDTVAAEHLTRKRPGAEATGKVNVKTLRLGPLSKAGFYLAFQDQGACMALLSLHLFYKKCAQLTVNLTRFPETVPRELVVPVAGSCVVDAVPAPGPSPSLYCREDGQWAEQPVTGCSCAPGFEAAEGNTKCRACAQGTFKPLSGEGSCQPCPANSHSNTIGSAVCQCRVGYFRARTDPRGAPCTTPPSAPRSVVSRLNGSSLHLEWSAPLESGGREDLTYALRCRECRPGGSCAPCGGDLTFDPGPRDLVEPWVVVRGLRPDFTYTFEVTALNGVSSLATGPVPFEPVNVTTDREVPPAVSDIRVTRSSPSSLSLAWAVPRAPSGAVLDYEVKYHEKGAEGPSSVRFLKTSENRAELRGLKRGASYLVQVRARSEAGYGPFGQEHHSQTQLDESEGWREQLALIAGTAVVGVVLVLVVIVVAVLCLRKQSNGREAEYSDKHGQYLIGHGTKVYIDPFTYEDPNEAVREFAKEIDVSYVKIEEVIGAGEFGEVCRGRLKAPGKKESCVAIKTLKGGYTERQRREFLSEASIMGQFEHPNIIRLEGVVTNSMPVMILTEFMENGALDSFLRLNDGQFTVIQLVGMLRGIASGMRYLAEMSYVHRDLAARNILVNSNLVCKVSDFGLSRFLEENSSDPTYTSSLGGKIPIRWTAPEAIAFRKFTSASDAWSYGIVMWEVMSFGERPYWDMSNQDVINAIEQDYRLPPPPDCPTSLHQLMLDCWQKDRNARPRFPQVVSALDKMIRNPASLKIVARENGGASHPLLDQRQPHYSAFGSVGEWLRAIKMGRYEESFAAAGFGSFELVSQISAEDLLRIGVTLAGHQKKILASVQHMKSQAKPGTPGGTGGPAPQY

[5] = molecular target: protein kinases (human kinome) (Homo sapiens, UniProt Q96DU7); settings: protein ITPKC (Q96DU7); experiment wp133, 4 hr; down
[6] = molecular target: protein kinases (human kinome) (Homo sapiens, UniProt Q52WX2); settings: for logFC: SBK1 (Q52WX2)
Chain of protein kinases (human kinome) (Homo sapiens, UniProt Q52WX2) (Q52WX2 whole entry): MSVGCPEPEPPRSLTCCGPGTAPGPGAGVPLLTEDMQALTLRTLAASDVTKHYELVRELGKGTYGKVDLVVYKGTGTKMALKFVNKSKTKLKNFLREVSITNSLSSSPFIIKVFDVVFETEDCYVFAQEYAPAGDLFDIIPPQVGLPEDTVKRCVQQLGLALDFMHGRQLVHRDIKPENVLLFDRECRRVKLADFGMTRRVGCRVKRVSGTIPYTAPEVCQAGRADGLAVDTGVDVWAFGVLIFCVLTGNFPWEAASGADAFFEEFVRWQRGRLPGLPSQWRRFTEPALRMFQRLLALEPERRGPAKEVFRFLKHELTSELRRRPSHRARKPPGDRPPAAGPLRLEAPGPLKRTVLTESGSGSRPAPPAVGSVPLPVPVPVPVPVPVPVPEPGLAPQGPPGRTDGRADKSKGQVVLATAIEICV

[7] = molecular target: protein kinases (human kinome) (Homo sapiens, UniProt P17948); settings: experiment wp131
Chain of protein kinases (human kinome) (Homo sapiens, UniProt P17948) (P17948 27-1338): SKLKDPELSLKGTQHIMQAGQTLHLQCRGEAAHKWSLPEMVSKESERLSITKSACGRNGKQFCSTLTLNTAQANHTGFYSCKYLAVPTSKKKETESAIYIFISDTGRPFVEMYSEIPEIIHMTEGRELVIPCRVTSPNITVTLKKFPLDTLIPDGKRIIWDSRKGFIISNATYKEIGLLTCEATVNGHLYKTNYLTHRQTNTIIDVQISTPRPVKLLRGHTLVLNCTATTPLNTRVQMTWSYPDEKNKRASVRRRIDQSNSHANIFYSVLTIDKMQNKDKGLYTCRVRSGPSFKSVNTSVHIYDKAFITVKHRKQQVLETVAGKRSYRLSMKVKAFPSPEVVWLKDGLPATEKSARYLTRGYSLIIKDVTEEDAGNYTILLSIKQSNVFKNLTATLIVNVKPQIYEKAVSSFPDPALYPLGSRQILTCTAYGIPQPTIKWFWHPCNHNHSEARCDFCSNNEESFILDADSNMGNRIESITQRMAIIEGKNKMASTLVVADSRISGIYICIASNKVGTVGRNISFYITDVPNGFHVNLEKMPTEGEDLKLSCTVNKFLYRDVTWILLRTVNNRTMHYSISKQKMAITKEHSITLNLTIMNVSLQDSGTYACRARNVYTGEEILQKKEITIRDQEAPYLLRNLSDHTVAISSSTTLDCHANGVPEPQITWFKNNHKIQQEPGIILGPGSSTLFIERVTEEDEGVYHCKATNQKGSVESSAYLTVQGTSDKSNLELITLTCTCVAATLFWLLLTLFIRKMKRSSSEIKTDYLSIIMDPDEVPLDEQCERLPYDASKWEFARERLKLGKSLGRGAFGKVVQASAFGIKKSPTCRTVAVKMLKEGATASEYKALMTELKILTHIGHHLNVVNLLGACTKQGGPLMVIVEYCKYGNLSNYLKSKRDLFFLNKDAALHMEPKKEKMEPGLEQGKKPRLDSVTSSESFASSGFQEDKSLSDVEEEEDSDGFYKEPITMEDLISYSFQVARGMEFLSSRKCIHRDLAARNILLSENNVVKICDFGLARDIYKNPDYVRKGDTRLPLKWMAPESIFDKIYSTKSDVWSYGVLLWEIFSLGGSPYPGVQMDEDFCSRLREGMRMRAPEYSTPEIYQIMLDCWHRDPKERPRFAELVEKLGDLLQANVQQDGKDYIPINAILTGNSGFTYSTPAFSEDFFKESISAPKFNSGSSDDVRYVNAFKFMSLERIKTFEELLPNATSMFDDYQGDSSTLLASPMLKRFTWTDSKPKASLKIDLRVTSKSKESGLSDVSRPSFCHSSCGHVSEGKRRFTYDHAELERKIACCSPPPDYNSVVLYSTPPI

[8] = molecular target: protein kinases (human kinome) (Homo sapiens, UniProt Q8N4C8); settings: experiment wp107
Chain of protein kinases (human kinome) (Homo sapiens, UniProt Q8N4C8) (Q8N4C8 whole entry): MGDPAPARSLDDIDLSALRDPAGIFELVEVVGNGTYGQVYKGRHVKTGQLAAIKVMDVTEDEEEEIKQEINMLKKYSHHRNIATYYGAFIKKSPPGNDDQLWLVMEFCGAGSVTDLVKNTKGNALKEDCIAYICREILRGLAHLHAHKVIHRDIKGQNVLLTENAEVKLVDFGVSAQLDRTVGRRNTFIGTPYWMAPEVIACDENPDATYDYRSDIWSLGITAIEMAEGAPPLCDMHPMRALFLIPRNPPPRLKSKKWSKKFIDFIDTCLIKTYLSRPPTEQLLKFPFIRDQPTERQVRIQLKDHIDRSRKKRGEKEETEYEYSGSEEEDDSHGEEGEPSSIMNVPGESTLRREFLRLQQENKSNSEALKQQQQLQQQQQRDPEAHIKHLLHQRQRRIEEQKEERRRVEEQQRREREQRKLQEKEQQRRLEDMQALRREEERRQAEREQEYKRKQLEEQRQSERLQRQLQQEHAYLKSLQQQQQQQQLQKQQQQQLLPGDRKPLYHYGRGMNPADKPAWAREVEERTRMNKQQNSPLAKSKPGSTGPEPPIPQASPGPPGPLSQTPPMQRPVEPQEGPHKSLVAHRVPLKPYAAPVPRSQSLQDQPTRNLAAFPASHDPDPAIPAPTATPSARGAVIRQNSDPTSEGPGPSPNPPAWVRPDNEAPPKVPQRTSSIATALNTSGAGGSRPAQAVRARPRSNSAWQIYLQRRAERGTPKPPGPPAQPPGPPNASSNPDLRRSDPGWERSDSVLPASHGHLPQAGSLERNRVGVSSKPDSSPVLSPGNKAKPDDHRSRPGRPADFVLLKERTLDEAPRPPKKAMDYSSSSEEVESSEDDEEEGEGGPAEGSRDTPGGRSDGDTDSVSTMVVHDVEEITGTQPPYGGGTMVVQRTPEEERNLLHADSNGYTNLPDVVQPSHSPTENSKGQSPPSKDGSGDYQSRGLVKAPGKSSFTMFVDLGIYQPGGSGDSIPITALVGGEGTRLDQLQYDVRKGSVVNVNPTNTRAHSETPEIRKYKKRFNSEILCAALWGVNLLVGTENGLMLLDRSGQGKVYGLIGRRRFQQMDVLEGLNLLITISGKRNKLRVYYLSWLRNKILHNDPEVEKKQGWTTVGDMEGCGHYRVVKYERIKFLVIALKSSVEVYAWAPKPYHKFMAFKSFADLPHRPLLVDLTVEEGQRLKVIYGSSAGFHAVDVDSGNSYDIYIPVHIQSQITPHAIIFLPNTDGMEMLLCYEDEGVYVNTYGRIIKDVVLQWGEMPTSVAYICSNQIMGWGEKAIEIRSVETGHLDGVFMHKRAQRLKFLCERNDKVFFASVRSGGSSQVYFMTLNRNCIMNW

[9] = molecular target: protein kinases (human kinome) (Homo sapiens, UniProt Q8NFU5); settings: IPMK (Q8NFU5)
Chain of protein kinases (human kinome) (Homo sapiens, UniProt Q8NFU5) (Q8NFU5 whole entry): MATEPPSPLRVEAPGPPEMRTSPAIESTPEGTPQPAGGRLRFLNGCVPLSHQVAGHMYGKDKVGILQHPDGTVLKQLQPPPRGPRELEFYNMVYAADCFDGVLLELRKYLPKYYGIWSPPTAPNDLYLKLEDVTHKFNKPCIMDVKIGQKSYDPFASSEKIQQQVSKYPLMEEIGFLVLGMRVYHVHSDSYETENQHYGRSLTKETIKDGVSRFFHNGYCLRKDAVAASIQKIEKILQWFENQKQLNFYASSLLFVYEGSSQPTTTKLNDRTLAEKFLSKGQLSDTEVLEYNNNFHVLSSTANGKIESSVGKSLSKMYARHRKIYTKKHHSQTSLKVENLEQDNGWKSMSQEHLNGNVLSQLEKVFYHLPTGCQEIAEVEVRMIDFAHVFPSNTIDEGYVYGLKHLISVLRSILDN

[10] = molecular target: protein kinases (human kinome) (Homo sapiens, UniProt Q01415); settings: protein GALK2 (Q01415-1); experiment wp056; down

`Cc1ccc(NC(=O)c2cccc(C(F)(F)F)c2)cc1N1Cc2cnc(Nc3ccc(N4CCN(Cc5cn(CCCCCOc6cccc7c6C(=O)N(C6CCC(=O)NC6=O)C7=O)nn5)CC4)nc3)nc2N(C)C1=O` (stereo not drawn) [DB0646, N-(3-(7-((6-(4-((1-(5-((2-(2,6-Dioxopiperidin-3-yl)-1,3-dioxoisoindolin-4-yl)oxy)pentyl)-1H-1,2,3-triazol-4-yl)methyl)piperazin-1-v)pyridin-3-yl)amino)-1-methyl-2-oxo-1,4-dihydropyrimido[4,5-d]pyrimidin-3(2H)-yl)-4-methylphenyl)-3-(trifluoromethyl)benzamide] was tested. Which logFC ([1]; experiment wp045) did it give?
Its logFC is −1.296.

What about the logFC ([1]; experiment wp103) of the same compound?
Its logFC is −0.6848.

And the logFC ([1]; experiment wp107)?
The logFC was −1.024.

What about the logFC ([1]; experiment wp117) of the same compound?
The logFC was −1.027.

And the logFC ([1]; experiment wp152)?
The logFC was −1.147.

And the logFC ([1]; experiment wp160, 4 hr)?
The logFC was −0.5025.

And the logFC ([1]; experiment wp160, 8 hr)?
Its logFC is −0.8848.

For `CC(C)(C)c1nc(-c2cccc(NS(=O)(=O)c3c(F)cccc3F)c2F)c(-c2ccnc(NCCOCCNC(=O)CCOCCOCCNc3cccc4c3C(=O)N(C3CCC(=O)NC3=O)C4=O)n2)s1` (stereo not drawn) [DD.03.106], which “logFC TESK2 (Q96S53-1)” value ([2]; direction of change down) is on record?
The value was −0.3831.

And the “logFC TESK2” value ([2]; protein TESK2 (Q96S53-1), down)?
Its value is −0.3831.

What does the source list for `Cn1c(=O)c(-c2c(Cl)cccc2Cl)cc2cnc(Nc3ccc(OCCNC(=O)CCCCCCNC(=O)COc4cccc5c4C(=O)N(C4CCC(=O)NC4=O)C5=O)cc3)nc21` (stereo not drawn) [SB1.G.192.1]?
logFC PKMYT1 (Q99640) ([3]; direction of change down): −0.7301; logFC PKMYT1 ([3]; protein PKMYT1 (Q99640), down): −0.7301

Which “logFC EPHB4 (P54760)” value ([4]; direction of change down) does the source give for `CC(C)S(=O)(=O)c1ccccc1Nc1nc(Nc2ccc(N3CCN(CCOCCNC(=O)CNc4cccc5c4C(=O)N(C4CCC(=O)NC4=O)C5=O)CC3)cc2)ncc1Cl` (stereo not drawn) [SK.3.91] here?
Its value is −0.5059.

What about the “logFC EPHB4” value ([4]; protein EPHB4 (P54760), down) of the same compound?
The value was −0.5059.

What about the “logFC ITPKC” value [5] of the same compound?
Its value is −0.3556.

What about the “logFC of SBK1 (Q52WVX2)” value ([6]; Experiment wp107) of the same compound?
The value was −0.921.

What about the logFC ([6]; experiment wp107) of the same compound?
Its logFC is −0.921.

And the logFC ([6]; experiment wp133, 2 hr)?
The logFC was −0.6852.

What about the logFC ([6]; experiment wp133, 4 hr) of the same compound?
Its logFC is −0.9029.

And the “logFC of SBK1 (Q52WX2)” value ([6]; experiment wp133, 2 hr)?
Its value is −0.6852.

What about the “logFC of SBK1 (Q52WX2)” value ([6]; experiment wp133, 4 hr) of the same compound?
The value was −0.9029.

For `CC(C)S(=O)(=O)c1ccccc1Nc1nc(Nc2ccc(N3CCN(CCOCCOCCNC(=O)CNc4cccc5c4C(=O)N(C4CCC(=O)NC4=O)C5=O)CC3)cc2)ncc1Cl` (stereo not drawn) [TL12.186], which “logFC FLT1 (P17948-1)” value ([7]; direction of change down) is on record?
The value was −0.699.

What about the “logFC FLT1” value ([7]; protein FLT1 (P17948-1), down) of the same compound?
The value was −0.699.

With `Nc1ncc(-c2ccc(S(=O)(=O)N(CCCNC(=O)CCOCCOCCOCCOCCOCCNc3cccc4c3C(=O)N(C3CCC(=O)NC3=O)C4=O)C3CC3)cc2)cc1-c1ccc2c(c1)CCNC2=O` (stereo not drawn) [WH.10417.099] as the compound, how does the “logFC MINK1 (Q8N4C8-1)” value ([8]; direction of change down) read?
The value was −0.5661.

And the “logFC MINK1” value ([8]; protein MINK1 (Q8N408-1), down)?
Its value is −0.5661.

What about the logFC ([9]; experiment wp056) of the same compound?
Its logFC is −0.5845.

And the logFC ([9]; experiment wp107)?
Its logFC is −0.4154.

How did the “logFC GALK2” value [10] turn out when `C=CCn1c(=O)c2cnc(Nc3ccc(N4CCN(CCCNc5cccc6c5C(=O)N(C5CCC(=O)NC5=O)C6=O)CC4)cc3)nc2n1-c1cccc(C(C)(C)O)n1` (stereo not drawn) [ZNL.02.096] was run?
Its value is −0.3724.
